Columns and labels:
Assay in all cases: KinomeScan 96-kinase panel
Assay type in all cases: binding
Settings in all cases: compound concentration 1000 nM
[1] = target: ABL1(T315I)-phosphorylated (Homo sapiens (Human), UniProt P00519, T315I)
Excerpt: (§1) The details of the screening technology were described in Fabian, M. A. et al, Nat., Biotechnol. 2005, 23, 329 and Karaman, M. W. et al, Nat., Biotechnol. 2008, 26, 127. From the above representative results, it can be seen that the compounds of the present invention have potent inhibitory activities on kinases including ALK, AXL, VEGFR2, PDGFR-α, PDGFR-β, c-KIT, Flt3, MEK1, MEK2, CSF1R, EPHA2, EPHA2, MKNK2, SRC, TIE2 and their mutants. Accordingly, the compounds of the present invention can be used for the treatment of diseases caused by abnormal activities of these kinases, e.g., cancer, psoriasis, hepatic cirrhosis, diabetes, diseases involving angiogenesis, eye diseases, immune system diseases, cardiovascular diseases, and so forth.

ACVR1B = ACVR1B (Homo sapiens (Human), UniProt P36896)
Excerpt: as §1

AKT1 = AKT1 (Homo sapiens (Human), UniProt P31749)
AKT1, sequence (P31749 whole entry): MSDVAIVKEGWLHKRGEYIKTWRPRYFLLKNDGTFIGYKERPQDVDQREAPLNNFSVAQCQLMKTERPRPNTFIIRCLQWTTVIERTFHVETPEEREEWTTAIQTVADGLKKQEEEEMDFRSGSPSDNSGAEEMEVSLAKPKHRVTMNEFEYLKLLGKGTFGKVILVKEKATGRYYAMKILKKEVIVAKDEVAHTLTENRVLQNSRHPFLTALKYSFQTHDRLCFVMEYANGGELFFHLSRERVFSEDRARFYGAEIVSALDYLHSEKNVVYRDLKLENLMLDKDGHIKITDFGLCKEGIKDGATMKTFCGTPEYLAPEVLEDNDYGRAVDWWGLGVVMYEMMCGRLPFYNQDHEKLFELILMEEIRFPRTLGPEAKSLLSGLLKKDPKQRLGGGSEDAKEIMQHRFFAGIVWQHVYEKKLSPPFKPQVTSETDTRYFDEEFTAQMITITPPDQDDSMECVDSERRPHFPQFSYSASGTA
Excerpt: as §1

AURKA = AURKA (Homo sapiens (Human), UniProt O14965)
Excerpt: as §1

AURKB = AURKB (Homo sapiens (Human), UniProt Q96GD4)
Excerpt: as §1

BMPR2 = BMPR2 (Homo sapiens (Human), UniProt Q13873)
Excerpt: as §1

CDK7 = CDK7 (Homo sapiens (Human), UniProt P50613)
Excerpt: as §1

CDK9 = CDK9 (Homo sapiens (Human), UniProt P50750)
Excerpt: as §1

DCAMKL1 = DCAMKL1 (Homo sapiens (Human), UniProt O15075)
Excerpt: as §1

ERBB4 = ERBB4 (Homo sapiens (Human), UniProt Q15303)
Excerpt: as §1

FGFR3 = FGFR3 (Homo sapiens (Human), UniProt P22607)
Excerpt: as §1

FLT3 = FLT3 (Homo sapiens (Human), UniProt P36888)
Excerpt: as §1

GSK3B = GSK3B (Homo sapiens (Human), UniProt P49841)
GSK3B, sequence (P49841 whole entry): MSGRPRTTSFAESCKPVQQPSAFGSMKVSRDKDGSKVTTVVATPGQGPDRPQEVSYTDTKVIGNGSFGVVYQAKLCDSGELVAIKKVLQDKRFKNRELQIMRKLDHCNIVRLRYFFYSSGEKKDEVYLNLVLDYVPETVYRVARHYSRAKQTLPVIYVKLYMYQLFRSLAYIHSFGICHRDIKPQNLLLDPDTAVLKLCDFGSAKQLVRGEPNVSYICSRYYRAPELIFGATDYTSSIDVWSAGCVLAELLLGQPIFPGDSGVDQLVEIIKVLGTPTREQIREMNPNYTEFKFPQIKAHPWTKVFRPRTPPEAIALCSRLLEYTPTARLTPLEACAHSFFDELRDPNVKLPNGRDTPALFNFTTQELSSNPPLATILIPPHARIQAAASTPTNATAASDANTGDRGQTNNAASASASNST
Excerpt: as §1

INSR = INSR (Homo sapiens (Human), UniProt P06213)
Excerpt: as §1

[2] = target: JAK2 (JH1domain-catalytic) (Homo sapiens (Human), UniProt O60674)
Excerpt: as §1

JNK1 = JNK1 (Homo sapiens (Human), UniProt P45983)
Excerpt: as §1

LKB1 = LKB1 (Homo sapiens (Human), UniProt Q15831)
LKB1, sequence (Q15831 whole entry): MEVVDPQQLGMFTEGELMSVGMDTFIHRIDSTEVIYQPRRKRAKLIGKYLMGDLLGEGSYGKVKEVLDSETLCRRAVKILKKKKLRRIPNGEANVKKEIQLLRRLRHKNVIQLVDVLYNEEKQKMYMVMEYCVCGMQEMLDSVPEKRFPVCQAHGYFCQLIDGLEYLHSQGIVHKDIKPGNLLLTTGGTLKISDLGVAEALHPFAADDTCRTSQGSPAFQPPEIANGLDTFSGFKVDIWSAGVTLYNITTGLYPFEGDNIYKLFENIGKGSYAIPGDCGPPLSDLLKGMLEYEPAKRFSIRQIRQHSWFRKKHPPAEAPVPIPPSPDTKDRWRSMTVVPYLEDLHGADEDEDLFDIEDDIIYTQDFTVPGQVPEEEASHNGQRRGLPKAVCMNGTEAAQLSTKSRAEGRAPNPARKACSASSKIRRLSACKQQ
Excerpt: as §1

MARK3 = MARK3 (Homo sapiens (Human), UniProt P27448)
Excerpt: as §1

MEK1 = MEK1 (Homo sapiens (Human), UniProt Q02750)
Excerpt: as §1

MET = MET (Homo sapiens (Human), UniProt P08581)
Excerpt: as §1

PAK1 = PAK1 (Homo sapiens (Human), UniProt Q13153)
Excerpt: as §1

PCTK1 = PCTK1 (Homo sapiens (Human), UniProt Q00536)
Excerpt: as §1

PDGFRB = PDGFRB (Homo sapiens (Human), UniProt P09619)
Excerpt: as §1

PDPK1 = PDPK1 (Homo sapiens (Human), UniProt O15530)
PDPK1, sequence (O15530 whole entry): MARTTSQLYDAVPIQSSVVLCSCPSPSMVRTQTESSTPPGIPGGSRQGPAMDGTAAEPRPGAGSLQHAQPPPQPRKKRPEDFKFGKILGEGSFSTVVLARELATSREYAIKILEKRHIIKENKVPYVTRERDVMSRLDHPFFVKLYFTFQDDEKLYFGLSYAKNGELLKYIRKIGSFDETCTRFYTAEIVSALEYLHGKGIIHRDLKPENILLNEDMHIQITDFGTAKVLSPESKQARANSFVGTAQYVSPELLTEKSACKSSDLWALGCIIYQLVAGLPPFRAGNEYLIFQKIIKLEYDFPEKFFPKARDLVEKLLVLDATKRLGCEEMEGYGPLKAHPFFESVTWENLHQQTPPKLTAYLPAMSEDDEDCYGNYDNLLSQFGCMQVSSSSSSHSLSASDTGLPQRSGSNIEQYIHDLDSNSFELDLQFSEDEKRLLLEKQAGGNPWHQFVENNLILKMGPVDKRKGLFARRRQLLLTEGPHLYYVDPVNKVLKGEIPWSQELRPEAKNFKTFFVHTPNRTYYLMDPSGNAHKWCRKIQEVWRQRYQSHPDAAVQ
Excerpt: as §1

PIM1 = PIM1 (Homo sapiens (Human), UniProt P11309)
Excerpt: as §1

PIM2 = PIM2 (Homo sapiens (Human), UniProt Q9P1W9)
PIM2, sequence (Q9P1W9 whole entry): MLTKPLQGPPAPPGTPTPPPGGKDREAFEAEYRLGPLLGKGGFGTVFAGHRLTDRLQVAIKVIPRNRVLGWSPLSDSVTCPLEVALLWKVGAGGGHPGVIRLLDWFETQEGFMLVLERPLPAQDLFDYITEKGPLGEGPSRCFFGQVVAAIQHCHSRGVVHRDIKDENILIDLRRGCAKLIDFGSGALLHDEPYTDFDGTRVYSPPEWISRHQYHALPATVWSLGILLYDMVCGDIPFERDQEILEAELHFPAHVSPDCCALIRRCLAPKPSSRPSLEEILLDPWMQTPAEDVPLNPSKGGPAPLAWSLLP
Excerpt: as §1

PIM3 = PIM3 (Homo sapiens (Human), UniProt Q86V86)
Excerpt: as §1

PLK4 = PLK4 (Homo sapiens (Human), UniProt O00444)
Excerpt: as §1

RET = RET (Homo sapiens (Human), UniProt P07949)
RET, sequence (P07949 29-1114): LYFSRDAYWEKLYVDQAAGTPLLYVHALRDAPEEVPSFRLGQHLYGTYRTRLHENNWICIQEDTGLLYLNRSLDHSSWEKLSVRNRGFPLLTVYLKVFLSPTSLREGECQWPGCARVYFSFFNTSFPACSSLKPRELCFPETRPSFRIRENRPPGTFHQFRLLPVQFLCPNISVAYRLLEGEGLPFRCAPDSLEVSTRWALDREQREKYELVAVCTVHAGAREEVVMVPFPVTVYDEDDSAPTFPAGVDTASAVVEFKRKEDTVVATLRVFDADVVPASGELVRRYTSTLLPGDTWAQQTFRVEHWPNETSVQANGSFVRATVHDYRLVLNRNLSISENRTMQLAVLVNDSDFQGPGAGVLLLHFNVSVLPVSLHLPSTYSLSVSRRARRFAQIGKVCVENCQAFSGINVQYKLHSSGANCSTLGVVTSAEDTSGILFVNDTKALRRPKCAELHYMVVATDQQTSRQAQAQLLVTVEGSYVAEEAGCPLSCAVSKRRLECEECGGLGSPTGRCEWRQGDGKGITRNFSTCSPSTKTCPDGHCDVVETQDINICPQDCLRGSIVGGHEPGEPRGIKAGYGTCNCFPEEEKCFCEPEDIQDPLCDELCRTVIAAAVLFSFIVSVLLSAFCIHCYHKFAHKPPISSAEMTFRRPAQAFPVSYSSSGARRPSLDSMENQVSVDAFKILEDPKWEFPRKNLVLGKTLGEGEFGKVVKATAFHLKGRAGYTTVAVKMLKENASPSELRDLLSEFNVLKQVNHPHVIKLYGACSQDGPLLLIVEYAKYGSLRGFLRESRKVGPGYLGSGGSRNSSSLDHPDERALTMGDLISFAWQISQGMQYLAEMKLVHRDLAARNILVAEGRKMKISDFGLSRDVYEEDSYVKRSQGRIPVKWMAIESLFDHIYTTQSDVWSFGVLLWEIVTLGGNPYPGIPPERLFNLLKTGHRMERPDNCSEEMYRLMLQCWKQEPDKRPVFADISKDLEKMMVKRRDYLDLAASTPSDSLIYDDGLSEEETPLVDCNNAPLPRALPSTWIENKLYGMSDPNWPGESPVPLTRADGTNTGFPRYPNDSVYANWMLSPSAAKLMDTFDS
Excerpt: as §1

[3] = target: RSK2 (Kin.Dom.1-N-terminal) (Homo sapiens (Human), UniProt P51812)
Excerpt: as §1

SNARK = SNARK (Homo sapiens (Human), UniProt Q9H093)
SNARK, sequence (Q9H093 whole entry): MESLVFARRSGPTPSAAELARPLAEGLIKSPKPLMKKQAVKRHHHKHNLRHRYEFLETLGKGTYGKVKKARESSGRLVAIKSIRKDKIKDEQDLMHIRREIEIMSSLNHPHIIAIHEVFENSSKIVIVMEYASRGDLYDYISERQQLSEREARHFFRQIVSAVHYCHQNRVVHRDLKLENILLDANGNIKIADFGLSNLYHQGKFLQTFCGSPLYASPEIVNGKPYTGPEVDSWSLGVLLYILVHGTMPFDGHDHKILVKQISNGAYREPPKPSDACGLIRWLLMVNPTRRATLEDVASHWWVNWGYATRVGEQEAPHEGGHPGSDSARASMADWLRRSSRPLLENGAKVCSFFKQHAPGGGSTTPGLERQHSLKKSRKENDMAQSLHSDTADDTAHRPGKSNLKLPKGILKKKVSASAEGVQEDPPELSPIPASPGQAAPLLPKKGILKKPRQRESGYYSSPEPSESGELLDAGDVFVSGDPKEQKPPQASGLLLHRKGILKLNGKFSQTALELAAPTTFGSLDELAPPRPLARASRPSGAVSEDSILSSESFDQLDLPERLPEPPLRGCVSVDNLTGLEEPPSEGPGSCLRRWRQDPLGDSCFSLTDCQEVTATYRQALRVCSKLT
Excerpt: as §1

SRC = SRC (Homo sapiens (Human), UniProt P12931)
Excerpt: as §1

TGFBR1 = TGFBR1 (Homo sapiens (Human), UniProt P36897)
Excerpt: as §1

TIE2 = TIE2 (Homo sapiens (Human), UniProt Q02763)
TIE2, sequence (Q02763 23-1124): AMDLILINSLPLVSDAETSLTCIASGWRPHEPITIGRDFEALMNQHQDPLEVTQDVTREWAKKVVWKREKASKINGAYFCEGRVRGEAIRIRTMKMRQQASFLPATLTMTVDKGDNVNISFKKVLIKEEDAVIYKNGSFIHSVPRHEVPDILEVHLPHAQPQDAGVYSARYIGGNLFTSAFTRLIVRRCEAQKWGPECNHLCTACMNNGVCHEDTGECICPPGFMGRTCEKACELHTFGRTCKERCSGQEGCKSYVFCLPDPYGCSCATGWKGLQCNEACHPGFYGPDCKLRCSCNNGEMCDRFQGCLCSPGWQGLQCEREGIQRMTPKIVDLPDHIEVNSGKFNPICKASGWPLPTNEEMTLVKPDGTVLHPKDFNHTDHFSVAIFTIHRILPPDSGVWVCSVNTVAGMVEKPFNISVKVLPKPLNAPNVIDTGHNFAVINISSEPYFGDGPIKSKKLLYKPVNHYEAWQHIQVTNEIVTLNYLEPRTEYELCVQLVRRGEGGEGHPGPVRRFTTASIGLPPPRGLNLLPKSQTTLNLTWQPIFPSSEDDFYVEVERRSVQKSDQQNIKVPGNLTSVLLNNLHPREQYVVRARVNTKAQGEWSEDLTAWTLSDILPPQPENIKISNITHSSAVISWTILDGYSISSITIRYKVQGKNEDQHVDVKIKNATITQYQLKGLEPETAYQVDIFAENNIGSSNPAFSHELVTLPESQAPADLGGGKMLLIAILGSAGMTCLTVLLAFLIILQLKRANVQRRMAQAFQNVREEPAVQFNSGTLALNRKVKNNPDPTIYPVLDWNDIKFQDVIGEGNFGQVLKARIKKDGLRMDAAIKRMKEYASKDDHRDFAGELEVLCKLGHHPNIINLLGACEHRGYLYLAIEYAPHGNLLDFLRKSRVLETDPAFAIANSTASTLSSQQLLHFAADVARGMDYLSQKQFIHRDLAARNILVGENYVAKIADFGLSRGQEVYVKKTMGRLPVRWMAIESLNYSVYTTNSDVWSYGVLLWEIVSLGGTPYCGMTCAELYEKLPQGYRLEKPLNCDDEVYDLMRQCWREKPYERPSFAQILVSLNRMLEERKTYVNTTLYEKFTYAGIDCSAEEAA
Excerpt: as §1

TRKA = TRKA (Homo sapiens (Human), UniProt P04629)
Excerpt: as §1

VEGFR2 = VEGFR2 (Homo sapiens (Human), UniProt P35968)
Excerpt: as §1

ZAP70 = ZAP70 (Homo sapiens (Human), UniProt P43403)
Excerpt: as §1

p38-alpha = p38-alpha (Homo sapiens (Human), UniProt Q16539)
Excerpt: as §1

% Ctrl@1000 nM [1]: 19 % Ctrl
% Ctrl@1000 nM (ACVR1B): 90 % Ctrl
% Ctrl@1000 nM (AKT1): 100 % Ctrl
% Ctrl@1000 nM (AURKA): 5.2 % Ctrl
% Ctrl@1000 nM (AURKB): 7 % Ctrl
% Ctrl@1000 nM (BMPR2): 100 % Ctrl
% Ctrl@1000 nM (CDK7): 5.8 % Ctrl
% Ctrl@1000 nM (CDK9): 67 % Ctrl
% Ctrl@1000 nM (DCAMKL1): 100 % Ctrl
% Ctrl@1000 nM (ERBB4): 17 % Ctrl
% Ctrl@1000 nM (FGFR3): 64 % Ctrl
% Ctrl@1000 nM (FLT3): 0.85 % Ctrl
% Ctrl@1000 nM (GSK3B): 100 % Ctrl
% Ctrl@1000 nM (INSR): 6 % Ctrl
% Ctrl@1000 nM [2]: 64 % Ctrl
% Ctrl@1000 nM (JNK1): 100 % Ctrl
% Ctrl@1000 nM (LKB1): 91 % Ctrl
% Ctrl@1000 nM (MARK3): 73 % Ctrl
% Ctrl@1000 nM (MEK1): 0.95 % Ctrl
% Ctrl@1000 nM (MET): 7.7 % Ctrl
% Ctrl@1000 nM (PAK1): 66 % Ctrl
% Ctrl@1000 nM (PCTK1): 100 % Ctrl
% Ctrl@1000 nM (PDGFRB): 0 % Ctrl
% Ctrl@1000 nM (PDPK1): 87 % Ctrl
% Ctrl@1000 nM (PIM1): 100 % Ctrl
% Ctrl@1000 nM (PIM2): 100 % Ctrl
% Ctrl@1000 nM (PIM3): 100 % Ctrl
% Ctrl@1000 nM (PLK4): 0.55 % Ctrl
% Ctrl@1000 nM (RET): 0 % Ctrl
% Ctrl@1000 nM [3]: 96 % Ctrl
% Ctrl@1000 nM (SNARK): 91 % Ctrl
% Ctrl@1000 nM (SRC): 0.15 % Ctrl
% Ctrl@1000 nM (TGFBR1): 85 % Ctrl
% Ctrl@1000 nM (TIE2): 0.55 % Ctrl
% Ctrl@1000 nM (TRKA): 0.5 % Ctrl
% Ctrl@1000 nM (VEGFR2): 1 % Ctrl
% Ctrl@1000 nM (ZAP70): 80 % Ctrl
% Ctrl@1000 nM (p38-alpha): 43 % Ctrl
Compound: COc1cc2c(Oc3ccc(NC(=O)C4(C(=O)Nc5ccc(F)cc5)CC4)cc3F)ccnc2cc1OCCCCCC(=O)NO [Example 13, N1′-[3-fluoro-4-[[7-[6-(hydroxyamino)-6-oxohexyloxy]-6-methoxy-4-quinolyl]oxy]phenyl]-N1-(4-fluorophenyl)cyclopropane-1,1-dicarboxamide]

Reference: patent publication US9186318B2, “Quinolyl-containing hydroxamic acid compound and preparation method thereof, and pharmaceutical composition containing this compound and use thereof” (Beijing Konruns Pharmaceutical Co., Ltd, priority 2011, dated 2015)
